Legend:
Details in all cases: in vivo
Homo sapiens [1] = test: AUC in HIV1 infected human at 100 mg, po administered twice daily; assay type: ADME, organism-based, Plasma
[2] = Tmax in HIV1 infected human at 100 mg, po administered twice daily; assay type: ADME, organism-based
[3] = Cmax in HIV1 infected human at 100 mg, po administered twice daily; assay type: ADME, organism-based; design: dose 100 mg, route oral
Homo sapiens [4] = test: Tlag in HIV1 infected human at 100 mg, po administered twice daily; assay type: ADME, organism-based
Homo sapiens [5] = test: CL/F in HIV1 infected human at 100 mg, po administered twice daily; assay type: ADME, organism-based
[6] = Apparent elimination half life in HIV1 infected human at 100 mg, po administered twice daily; assay type: ADME, organism-based
Homo sapiens [7] = test: AUC in HIV1 infected human at 1000 mg, po administered twice daily; assay type: ADME, organism-based, Plasma
[8] = Cmax in HIV1 infected human at 1000 mg, po administered twice daily; assay type: ADME, organism-based; design: dose 1000 mg, route oral
[9] = Apparent elimination half life in HIV1 infected human at 1000 mg, po administered twice daily; assay type: ADME, organism-based
[10] = Tmax in HIV1 infected human at 1000 mg, po administered twice daily; assay type: ADME, organism-based
Homo sapiens [11] = test: Tlag in HIV1 infected human at 1000 mg, po administered twice daily; assay type: ADME, organism-based

Row | AUC (Homo sapiens [1]) [ng·h/mL] | Tmax [2] [h] | Cmax [3] [ng/mL] | Tlag (Homo sapiens [4]) [h] | CL/F (Homo sapiens [5]) [L/h] | half-life [6] [h] | AUC (Homo sapiens [7]) [ng·h/mL] | Cmax [8] [ng/mL] | half-life [9] [h] | Tmax [10] [h] | Tlag (Homo sapiens [11]) [h] | Compound
1 | 6399.9 | 4 | 880 | 0.25 | 15.6 | 4.3 |  |  |  |  |  | CC(C)c1nc(CN(C)C(=O)N[C@H](C(=O)N[C@@H](Cc2ccccc2)C[C@H](O)[C@H](Cc2ccccc2)NC(=O)OCc2cncs2)C(C)C)cs1 [RITONAVIR]
2 |  |  |  |  |  |  | 17546.5 | 2620 | 3.7 | 4 | 0 | CC(C)(C)NC(=O)[C@@H]1C[C@@H]2CCCC[C@@H]2CN1C[C@@H](O)[C@H](Cc1ccccc1)NC(=O)[C@H](CC(N)=O)NC(=O)c1ccc2ccccc2n1 [SAQUINAVIR]
